Laboratory results: article PMC11074101 (Cell Discovery, 2024)

Columns and labels:
Type in all cases: cell-based
[1] = target: T1, MCHR2 F177(ECL2)A (Homo sapiens, UniProt Q969V1, F177A); assay: IP-One IP1 accumulation assay, MCHR2 F177A; conditions: n = 3 in triplicate
T1 construct: expressed in transfected cells; host or cells: AD293
Text: (§1) The gene sequences encoding human MCHR1 (residues 70‒405) and MCHR2 (residues 1‒331, with L256^6.40Y mutation) were subcloned into pFastBac vector (Invitrogen) with an N-terminal haemagglutinin signal peptide (HA) and a thermostabilized BRIL fusion, followed by a C-terminal 15-amino acid linker, a LgBiT subunit and two MBPs to facilitate receptor expression and stability. The Gαi construct was designed with dominant-negative mutations S47N, G203A, A326S, and E245A to decrease the affinity of nucleotide-binding and stable Gαβγ complex. The mini-Gαq construct was designed with the C-terminal α-helix (αH5) of Gαq, which is critical for G protein coupling selectivity. The core of the construct, known as the Ras domain, is derived from Gαs. This design choice was made to enable the binding of the nanobody Nb35, which stabilizes the complex for cryo-EM analysis. […]
(§2) IP1 accumulation assay was applied for the detection of the downstream Gαq signal of MCHR2 using the IP-One HTRF kit (Cisbio). […] Before measurement, the samples were incubated at RT for 30 min and measured with EnVision multi-plate reader (PerkinElmer).
(§3) Concentration–response curves were evaluated with a three-parameter logistic equation. The significance was determined with one-way ANOVA with Tukey’s test, and P < 0.05 vs wild type was considered statistically significant.

[2] = target: T2, MCHR2 D179(ECL2)A (Homo sapiens, UniProt Q969V1, D179A); assay: IP-One IP1 accumulation assay, MCHR2 D179A; conditions: n = 3 in triplicate
T2 construct: expressed in transfected cells; host or cells: AD293
Text: as §1, §2, §3

[3] = target: T3, MCHR2 V181(ECL2)A (Homo sapiens, UniProt Q969V1, V181A); assay: IP-One IP1 accumulation assay, MCHR2 V181A; conditions: n = 3 in triplicate
T3 construct: expressed in transfected cells; host or cells: AD293
Text: as §1, §2, §3

[4] = target: T4, MCHR2 S183(ECL2)A (Homo sapiens, UniProt Q969V1, S183A); assay: IP-One IP1 accumulation assay, MCHR2 S183A; conditions: AD293, mean ± S.E.M., n = 3 in triplicate
T4 construct: expressed in transfected cells; host or cells: AD293
Text: as §1, §2, §3

[5] = target: T5, MCHR2 A185(45.51)F (Homo sapiens, UniProt Q969V1, A185F); assay: IP-One IP1 accumulation assay, MCHR2 A185F; conditions: n = 3 in triplicate
T5 construct: expressed in transfected cells; host or cells: AD293
Text: as §1, §2, §3

[6] = target: T6, MCHR2 F186(45.52)A (Homo sapiens, UniProt Q969V1, F186A); assay: IP-One IP1 accumulation assay, MCHR2 F186A; conditions: AD293, mean ± S.E.M., n = 3 in triplicate
T6 construct: expressed in transfected cells; host or cells: AD293
Text: as §1, §2, §3

[7] = target: T7, MCHR2 L188(ECL2)A (Homo sapiens, UniProt Q969V1, L188A); assay: IP-One IP1 accumulation assay, MCHR2 L188A; conditions: AD293, mean ± S.E.M., n = 3 in triplicate
T7 construct: expressed in transfected cells; host or cells: AD293
Text: as §1, §2, §3

[8] = target: T8, MCHR2 V194(5.35)A (Homo sapiens, UniProt Q969V1, V194A); assay: IP-One IP1 accumulation assay, MCHR2 V194A; conditions: n = 3 in triplicate
T8 construct: expressed in transfected cells; host or cells: AD293
Text: as §1, §2, §3

[9] = target: T9, MCHR2 T198(5.39)A (Homo sapiens, UniProt Q969V1, T198A); assay: IP-One IP1 accumulation assay, MCHR2 T198A; conditions: n = 3 in triplicate
T9 construct: expressed in transfected cells; host or cells: AD293
Text: as §1, §2, §3

[10] = target: T10, MCHR2 Y267(6.51)A (Homo sapiens, UniProt Q969V1, Y267A); assay: IP-One IP1 accumulation assay, MCHR2 Y267A; conditions: n = 3 in triplicate
T10 construct: expressed in transfected cells; host or cells: AD293
Text: as §1, §2, §3

[11] = target: T11, MCHR2 Q271(6.55)A (Homo sapiens, UniProt Q969V1, Q271A); assay: IP-One IP1 accumulation assay, MCHR2 Q271A; conditions: n = 3 in triplicate
T11 construct: expressed in transfected cells; host or cells: AD293
Text: as §1, §2, §3

[12] = target: T12, MCHR2 P280(ECL3)A (Homo sapiens, UniProt Q969V1, P280A); assay: IP-One IP1 accumulation assay, MCHR2 P280A; conditions: n = 3 in triplicate
T12 construct: expressed in transfected cells; host or cells: AD293
Text: as §1, §2, §3

[13] = target: T13, MCHR2 Y285(7.32)A (Homo sapiens, UniProt Q969V1, Y285A); assay: IP-One IP1 accumulation assay, MCHR2 Y285A; conditions: AD293, mean ± S.E.M., n = 3 in triplicate
T13 construct: expressed in transfected cells; host or cells: AD293
Text: as §1, §2, §3

[14] = target: T14, MCHR2 Y288(7.35)A (Homo sapiens, UniProt Q969V1, Y288A); assay: IP-One IP1 accumulation assay, MCHR2 Y288A; conditions: n = 3 in triplicate
T14 construct: expressed in transfected cells; host or cells: AD293
Text: as §1, §2, §3

[15] = target: T15, MCHR2 I292(7.39)A (Homo sapiens, UniProt Q969V1, I292A); assay: IP-One IP1 accumulation assay, MCHR2 I292A; conditions: n = 3 in triplicate
T15 construct: expressed in transfected cells; host or cells: AD293
Text: as §1, §2, §3

[16] = target: T16, MCHR2 S295(7.42)A (Homo sapiens, UniProt Q969V1, S295A); assay: IP-One IP1 accumulation assay, MCHR2 S295A; conditions: n = 3 in triplicate
T16 construct: expressed in transfected cells; host or cells: AD293
Text: as §1, §2, §3

[17] = AD293, IP-One HTRF, 37 °C 1 h, mean ± S.E.M., P < 0.0001 vs WT

T11 sequence (Q969V1 whole entry Q271A): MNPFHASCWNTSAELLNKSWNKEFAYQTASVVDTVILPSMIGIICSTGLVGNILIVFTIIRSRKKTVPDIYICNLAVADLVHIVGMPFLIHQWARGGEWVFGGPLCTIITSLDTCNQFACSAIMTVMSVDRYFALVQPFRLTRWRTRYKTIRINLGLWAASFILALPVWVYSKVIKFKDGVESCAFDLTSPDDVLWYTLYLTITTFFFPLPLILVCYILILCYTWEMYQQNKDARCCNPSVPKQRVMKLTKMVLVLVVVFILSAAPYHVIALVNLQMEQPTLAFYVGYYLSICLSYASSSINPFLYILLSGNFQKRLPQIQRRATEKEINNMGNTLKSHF
T14 sequence (Q969V1 whole entry Y288A): as the sequence (Q969V1 whole entry Q271A) above, with A271Q, Y288A counted along it
T10 sequence (Q969V1 whole entry Y267A): as the sequence (Q969V1 whole entry Q271A) above, with Y267A, A271Q counted along it
T8 sequence (Q969V1 whole entry V194A): as the sequence (Q969V1 whole entry Q271A) above, with V194A, A271Q counted along it
T15 sequence (Q969V1 whole entry I292A): as the sequence (Q969V1 whole entry Q271A) above, with A271Q, I292A counted along it
T5 sequence (Q969V1 whole entry A185F): as the sequence (Q969V1 whole entry Q271A) above, with A185F, A271Q counted along it
T9 sequence (Q969V1 whole entry T198A): as the sequence (Q969V1 whole entry Q271A) above, with T198A, A271Q counted along it
T3 sequence (Q969V1 whole entry V181A): as the sequence (Q969V1 whole entry Q271A) above, with V181A, A271Q counted along it
T16 sequence (Q969V1 whole entry S295A): as the sequence (Q969V1 whole entry Q271A) above, with A271Q, S295A counted along it
T1 sequence (Q969V1 whole entry F177A): as the sequence (Q969V1 whole entry Q271A) above, with F177A, A271Q counted along it
T12 sequence (Q969V1 whole entry P280A): as the sequence (Q969V1 whole entry Q271A) above, with A271Q, P280A counted along it
T2 sequence (Q969V1 whole entry D179A): as the sequence (Q969V1 whole entry Q271A) above, with D179A, A271Q counted along it
T6 sequence (Q969V1 whole entry F186A): as the sequence (Q969V1 whole entry Q271A) above, with F186A, A271Q counted along it
T4 sequence (Q969V1 whole entry S183A): as the sequence (Q969V1 whole entry Q271A) above, with S183A, A271Q counted along it
T13 sequence (Q969V1 whole entry Y285A): as the sequence (Q969V1 whole entry Q271A) above, with A271Q, Y285A counted along it
T7 sequence (Q969V1 whole entry L188A): as the sequence (Q969V1 whole entry Q271A) above, with L188A, A271Q counted along it

For `CSCC[C@@H]1NC(=O)[C@@H](NC(=O)[C@H](CCCNC(=N)N)NC(=O)[C@H](CC(C)C)NC(=O)[C@H](CCSC)NC(=O)[C@H](CC(=O)O)NC(=O)[C@H](Cc2ccccc2)NC(=O)[C@@H](N)CC(=O)O)CSSC[C@@H](C(=O)N[C@@H](Cc2c[nH]c3ccccc23)C(=O)N[C@@H](CCC(N)=O)C(=O)N[C@H](C(=O)O)C(C)C)NC(=O)[C@@H]2CCCN2C(=O)[C@H](CCCNC(=N)N)NC(=O)[C@H](Cc2ccc(O)cc2)NC(=O)[C@H](C(C)C)NC(=O)[C@H](CCCNC(=N)N)NC(=O)CNC(=O)[C@H](CC(C)C)NC1=O` [MCH, Melanin-concentrating hormone], which EC50 [1, 17] is on record?
Its EC50 is 3980 nM.

And the Emax ([1]; AD293, mean ± S.E.M.)?
The Emax was 97 ± 2%.

What about the EC50 [2, 17] of the same compound?
Its EC50 is 1290 nM.

And the Emax ([2]; AD293, mean ± S.E.M.)?
The Emax was 85%.

And the EC50 [3, 17]?
Its EC50 is 53.7 nM.

And the Emax ([3]; AD293, mean ± S.E.M.)?
The Emax was 96 ± 1%.

And the Emax [4]?
Its Emax is 95 ± 1%.

What about the EC50 [5, 17] of the same compound?
Its EC50 is 12600 nM.

And the Emax ([5]; AD293, mean ± S.E.M.)?
Its Emax is 96 ± 1%.

What about the Emax [6] of the same compound?
Its Emax is 98%.

And the Emax [7]?
The Emax was 101 ± 1%.

What about the EC50 [8, 17] of the same compound?
Its EC50 is 33.1 nM.

And the Emax ([8]; AD293, mean ± S.E.M.)?
Its Emax is 98 ± 1%.

And the EC50 [9, 17]?
The EC50 was 69.2 nM.

And the Emax ([9]; AD293, mean ± S.E.M.)?
The Emax was 93 ± 2%.

What about the EC50 [10, 17] of the same compound?
The EC50 was 200 nM.

And the Emax ([10]; AD293, mean ± S.E.M.)?
Its Emax is 92 ± 1%.

And the EC50 [11, 17]?
The EC50 was 27.5 nM.

What about the Emax ([11]; AD293, mean ± S.E.M.) of the same compound?
Its Emax is 101 ± 1%.

What about the EC50 [12, 17] of the same compound?
Its EC50 is 182 nM.

What about the Emax ([12]; AD293, mean ± S.E.M.) of the same compound?
Its Emax is 90 ± 2%.

What about the Emax [13] of the same compound?
The Emax was 92 ± 2%.

And the EC50 [14, 17]?
Its EC50 is 1230 nM.

What about the Emax ([14]; AD293, mean ± S.E.M.) of the same compound?
The Emax was 84 ± 2%.

What about the EC50 [15, 17] of the same compound?
Its EC50 is 129 nM.

What about the Emax ([15]; AD293, mean ± S.E.M.) of the same compound?
The Emax was 92 ± 2%.

And the EC50 [16, 17]?
The EC50 was 234 nM.

What about the Emax ([16]; AD293, mean ± S.E.M.) of the same compound?
Its Emax is 81 ± 2%.
